{
  "source": "patent US20240398767A1",
  "about": "“INHIBITORS OF THE MTDH-SND1 PROTEIN COMPLEX FOR CANCER THERAPY” (The Trustees of Princeton University, priority 2021, published 2024)",
  "key": {"PyMT tumorspheres": {"system": "PyMT tumorspheres", "assay": "PyMT tumorsphere viability, apoptosis, cell cycle and western blot", "format": "cell-based, mouse", "protocol": "FIG. 14A, Spheres were treated with vehicle or indicated concentrations of C26-A6 for 1 week. The viability of the spheres was then quantified by MTT assay.\nFor FIGS. 14B-14I, similar sphere assay as in FIG. 14A was performed. n≥3 independent experiments. Data represent mean±SEM and significance determined by two tailed Student's t-test for all panels in FIGS. 14B-14I.\nFIG. 15C, Sphere assay was performed and treated with vehicle and C26-A6 as in FIG. 14A. The spheres were collected for western blot to analyze the expression of the candidates.\nTo obtain insights into the molecular mechanism underlying C26-A6 treatment-induced reduction of cell viability and increase of apoptosis, in vitro sphere assays were employed. […] To further explore the downstream effectors of tumor-suppressive response to C26-A6, GSEA analysis of PyMT tumor with or without C26-A6 treatment was performed."}, "[1]": {"assay": "Toxicity in 4TO7 metastasis-bearing mice (ALT/AST, blood cell counts, small intestine)", "format": "in vivo", "protocol": "FIG. 7E, Serum from mice in FIG. 7A were collected for ALT and AST activity measurement following the standard protocol (Sigma). Data represent mean±SEM. AST, n=8 replicates from 6 mice; ALT, n=9 replicates from 6 mice. Significance determined by one-way ANOVA analysis with Sidak's test for multiple comparisons.\nFIG. 7F, Blood samples were drawn from the heart of mice in FIG. 7A, and blood cell counts were performed with the Sysemx XN-3000 Hematology System (Sysmex America, Inc.). Data represent mean±SEM. n=6 mice per group. Significance determined by one-way ANOVA analysis with Sidak's test for multiple comparisons.\nFIG. 7G, Small intestine samples were obtained from mice in FIG. 7A. H&E and Alcian blue staining was performed on processed, sliced samples. Scale bar: 200 μm.\nFIG. 7H, Quantification of Alcian blue staining results from FIG. 7G. Data represent mean±SEM. n=12 fields from 6 mice in each group. Significance determined by one-way ANOVA analysis with Sidak's test for multiple comparisons."}, "[2]": {"biological_target": "T1, MTDH-SND1 interaction in SCP28 tumors (Homo sapiens, UniProt Q7KZF4)", "T1 construct": "SND1-NLuc and CLuc-MTDH flanked by BamH 1 and Not 1 restriction sites were inserted into pcDNA3.1 and pRVPTO (retrovrial) vectors; expressed in transfected cells; host or cells: SCP28 cells stably transduced with pRVPTO retroviral vectors (packaged in H29 cells); in culture (A5) or as orthotopic tumours in NSG mice (A11)", "T1 sequence (Q7KZF4 with tags, fused parts or gaps)": "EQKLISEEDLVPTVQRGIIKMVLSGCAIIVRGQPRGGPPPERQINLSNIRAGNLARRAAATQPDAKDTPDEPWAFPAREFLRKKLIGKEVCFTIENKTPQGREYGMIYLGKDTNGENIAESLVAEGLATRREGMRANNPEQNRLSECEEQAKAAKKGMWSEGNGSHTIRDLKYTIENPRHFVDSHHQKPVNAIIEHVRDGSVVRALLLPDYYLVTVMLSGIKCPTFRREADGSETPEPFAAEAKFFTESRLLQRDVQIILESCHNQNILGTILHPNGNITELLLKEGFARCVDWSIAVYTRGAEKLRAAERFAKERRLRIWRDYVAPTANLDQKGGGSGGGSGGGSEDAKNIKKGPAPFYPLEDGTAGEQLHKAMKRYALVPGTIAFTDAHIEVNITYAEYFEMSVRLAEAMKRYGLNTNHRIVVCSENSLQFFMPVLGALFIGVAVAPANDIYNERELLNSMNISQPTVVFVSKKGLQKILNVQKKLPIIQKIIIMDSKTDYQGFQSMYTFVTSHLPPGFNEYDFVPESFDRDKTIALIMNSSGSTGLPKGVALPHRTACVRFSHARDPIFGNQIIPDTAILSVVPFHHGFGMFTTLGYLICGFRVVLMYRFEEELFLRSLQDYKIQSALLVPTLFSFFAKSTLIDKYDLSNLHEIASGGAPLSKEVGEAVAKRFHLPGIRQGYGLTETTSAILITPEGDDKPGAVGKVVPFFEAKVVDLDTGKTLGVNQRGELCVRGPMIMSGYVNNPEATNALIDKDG", "assay": "In vivo split-luciferase bioluminescence in SCP28 tumors", "design": "species or system NSG female mice", "conditions": "0.25 mg or 0.5 mg via tail-vein injection, 30 min after treatment", "protocol": "FIG. 12A, NSG female mice were inoculated with 10 k of SCP28 cells that express split-luciferase components by MFP injection. Two weeks after injection, the mice were treated with 0.25 mg/mouse or 0.5 mg/mouse of C26-A6 via tail-vein injection. 30 min after the treatment, luciferase activity at primary tumors was measured.\nFIG. 12B, Luciferase activity at primary tumors from mice in FIG. 12A. Data represent mean±SEM. n=3 mice. Significance determined by one-way ANOVA analysis with Dunnett's test for multiple comparisons.\nTo test the in vivo blocking effect of C26-A6 on MTDH-SND1 interaction, mice with SCP28 tumors that stably express split-luciferase components were treated with vehicle, 0.25 mg or 0.5 mg of C26-A6 via tail-vein injection followed by bioluminescence imaging."}, "[3]": {"system": "PyMT tumors with MTDH KO or SND1 KD", "assay": "PyMT tumor models with MTDH KO or SND1 KD in FVB mice", "format": "in vivo, FVB female mice", "conditions": "6 weeks treatment", "protocol": "FIG. 5G, 10 k of the cells of FIG. 5F were inoculated into FVB female mice and treated with or without C26-A6 after primary tumors reached to approximately 2 mm in diameter. 6 weeks after treatment, tumor size was determined. Vehicle, n=10 mice; C26-A6, n=10 mice.\nFIG. 5H, 10 k of the cells of FIG. 5F were inoculated into FVB female mice and treated with or without C26-A6 after primary tumors reached to approximately 2 mm in diameter. 6 weeks after treatment, spontaneous lung metastasis was determined. The lung metastatic areas of the representative lungs were highlighted with red. Vehicle, n=10 mice; C26-A6, n=10 mice. Size bar, 5 mm.\nFIG. 5J, 10 k of the cells of FIG. 5I were injected into FVB females and treated similarly as in FIGS. 5G, 5H. Tumor size was assessed. Vehicle, n=10 mice; C26-A6, n=10 mice.\nFIG. 5K, 10 k of the cells of FIG. 5I were injected into FVB females and treated similarly as in FIGS. 5G, 5H. Lung metastasis was assessed. The lung metastatic areas of the representative lungs were highlighted with red. Vehicle, n=10 mice; C26-A6, n=10 mice. Size bar, 5 mm.\nNext, to further validate that the anti-tumor effect of C26-A6 depends on its on-target effects by disrupting MTDH-SND1 complex, PyMT; UBC-Cre^ERT+/−;Mtdh^fl/fl tumor cells with Mtdh depletion or with endogenous Snd1 KD were employed for the similar assay as in FIG. 5-1a. […]"}},
  "data": [
    {"smiles": "COc1ccc(Cl)cc1S(=O)(=O)Nc1cccn2nc(C)nc12", "note": "[Analog C26-A6]", "values": [
      {"measurement": "Cdc20, Plk1, and c-Myc expression (western blot)", "setting": "PyMT tumorspheres", "value": "down-regulated"},
      {"measurement": "cell cycle status", "setting": "PyMT tumorspheres; 200 μM", "value": "induced G2/M cell cycle arrest"},
      {"measurement": "survival (live cells, apoptosis)", "setting": "PyMT tumorspheres; 200 μM", "value": "significantly reduced survival"},
      {"measurement": "sphere viability (MTT assay), tumorspheres versus MECs", "setting": "PyMT tumorspheres; indicated concentrations, 1 week", "value": "more susceptible"},
      {"measurement": "tolerability", "setting": "[1]; 15 mg/kg 5 days per week", "value": "well tolerated"},
      {"measurement": "enhancement of chemotherapy toxicity", "setting": "[1]; combined with paclitaxel", "value": "did not further enhance the chemotherapy toxicity"},
      {"measurement": "MTDH-SND1 interaction in vivo (luciferase activity at primary tumors)", "setting": "[2]", "value": "blocks MTDH-SND1 interaction in vivo in a dose-dependent manner"},
      {"measurement": "tumor growth or metastasis", "setting": "[3]", "value": "did not further inhibit tumor growth or metastasis"}
    ]}
  ]
}
